Results: the NIST ThermoML archive (doi:10.1016/j.jct.2005.01.009)

Experiment: mn = molality of the nth substance listed, in mol/kg
Details: 101 kPa, Liquid; for speed of sound: Linear variable-path acoustic interferometer

CCCCn1cc[n+](C)c1.[Br-] [1-butyl-3-methylimidazolium bromide] + O
Details | mass density, 298.15 K [kg/m3] | mass density, 303.15 K [kg/m3] | mass density, 308.15 K [kg/m3] | mass density, 313.15 K [kg/m3] | mass density, 318.15 K [kg/m3] | speed of sound, 298.15 K [m/s] | speed of sound, 303.15 K [m/s] | speed of sound, 308.15 K [m/s] | speed of sound, 313.15 K [m/s] | speed of sound, 318.15 K [m/s]
m1 = 0.0692 | 1000.44 | 999.001 | 997.35 | 995.472 | 993.421 | 1504 | 1515.9 | 1526 | 1534.6 | 1541.9
m1 = 0.1376 | 1003.7 | 1002.2 | 1000.49 | 998.581 | 996.491 | 1511.3 | 1522.7 | 1532.3 | 1540.4 | 1546.9
m1 = 0.2697 | 1009.85 | 1008.28 | 1006.54 | 1004.6 | 1002.47 | 1523.1 | 1533.3 | 1541.9 | 1549.1 | 1555
m1 = 0.6117 | 1024.93 | 1023.15 | 1021.17 | 1019.01 | 1016.68 | 1552.2 | 1561.7 | 1568.7 | 1573.8 | 1577
m1 = 1.28 | 1050.92 | 1048.78 | 1046.56 | 1044.14 | 1041.59 | 1600.3 | 1603.5 | 1605.6 | 1606.7 | 1606.9
m1 = 2.133 | 1078.26 | 1075.78 | 1073.14 | 1070.42 | 1067.58 | 1645.9 | 1644.9 | 1644.1 | 1640.6 | 1637.5
m1 = 3.115 | 1103.8 | 1100.98 | 1098.05 | 1095.04 | 1091.93 | 1682.7 | 1678.3 | 1673.3 | 1667.9 | 1662
m1 = 5.187 | 1143.52 | 1140.26 | 1136.94 | 1133.57 | 1130.13 | 1724.2 | 1716 | 1707.4 | 1698.6 | 1689.6
m1 = 7.792 | 1176.05 | 1172.57 | 1169.05 | 1165.49 | 1161.9 | 1741.2 | 1731.4 | 1721.3 | 1711 | 1700.5
